According to US20260374782A1, “NEW COMPOUNDS, PROCESSES FOR PREPARING THE SAME AND THEIR USE AS DRUGS” (B&A ONCOMEDICAL, priority 2022, published 2026):
“And” between values parts separate entries of the source, which are not always exact repeats. Equal values may be shown once.

Assays:
[1] = system: CA3 pyramidal neurons in hippocampus; assay: Giant depolarizing potentials (GDPs) current density in CA3 pyramidal neurons, hippocampal slices, whole-cell recordings; assay type: cell-based, mice; settings: for GDPs current density (normalized): individual cells; for activity at 0.1 µM / activity at 0.3 µM / activity at 1 µM / activity at 3 µM / activity at 10 µM: Mus musculus, Pyramidal neuron, mean, read-out: GDPs current density, Mean (normalized); for block of GDPs in CA3 pyramidal neurons: in words
From the text: FIG. 2. Brain slice (hippocampus) with electrical stimulation and recording
FIG. 3. Normalized GDP current density in CA3 pyramidal neurons in presence of NKCC1 inhibitor
Panel A. Normalized GDP current density in CA3 pyramidal neurons according to the concentration of compound 57 in μM Panel B. Normalized GDP current density in CA3 pyramidal neurons according to the concentration of compound 51 in μM Panel C. Normalized GDP current density in CA3 pyramidal neurons according to the concentration of compound 57 and compound 51 in μM.
51 and 57 were tested to evaluate their basic neuronal intrinsic properties and excitability. Current-clamp whole-cell recordings were performed in CA3 pyramidal neurons in hippocampal slices from P14-15 mice with a bipolar stimulation electrode (FIG. 2).

CA1 pyramidal neurons = assay: Seizure-like events (SLE) triggered by tetanus stimulation of stratum radiatum in hippocampus, cell-attached recording; assay type: cell-based; settings: for anticonvulsive activity / suppression of GABAAR-mediated depolarization during SLEs: 2 μM, in words
Method: (§1) FIG. 4. Cell-attached recording Tetanus in CA1 pyramidal neurons in presence of compound 51 (20 stimulus, 100 Hz, 4 consecutive traces superimposed), expressed in picoampere per second. The upper bars are representing the 100 Hz stimulation of stratum radiatum in control conditions, and the lower bars are representing 30 minutes after application of 2 μM of compound 51.
as §1, with “5.” for “4.”, “57” for “51”, “57.” for “51.”
FIG. 6. Post-tetanus frequency (normalized) in presence or not of 2 μM of compound 51 (withing 20 seconds window s after tetanus stimulation) (paired two-tailed t test: p=1*e^−4, n=5 cells). The error bars represent standard error of the mean.
FIG. 7. Post-tetanus frequency (normalized) in presence or not of 2 μM of compound 57 (withing 20 seconds window s after tetanus stimulation) (paired two-tailed t test: p=1*e^−4, n=5 cells). The error bars represent standard error of the mean.
Use of a NKCC1 inhibitor to block the activation of NKCC1 can reduce the [Cl^−]i, and thereby attenuate the excitatory GABAAR responses during epilepsy. Therefore, anticonvulsant effects of 51 on modulating the GABA polarity in acute seizure models was investigated. The seizure-like events in CA1 pyramidal neurons were triggered by tetanic stimulation of stratum radiatum in hippocampus by 51 (FIG. 4) and 57 (FIG. 5).

| Compound | GDPs current density (normalized) ([1]; 0.1 μM) | GDPs current density (normalized) ([1]; 0.3 μM) | GDPs current density (normalized) ([1]; 1 μM) | GDPs current density (normalized) ([1]; 3 μM) | GDPs current density (normalized) ([1]; 10 μM) | activity at 0.1 µM ([1]; 0.1 μM) [%] | activity at 0.3 µM ([1]; 0.3 μM) [%] | activity at 1 µM ([1]; 1 μM) [%] | activity at 3 µM ([1]; 3 μM) [%] | activity at 10 µM ([1]; 10 μM) [%] | block of GDPs in CA3 pyramidal neurons [1] | anticonvulsive activity (CA1 pyramidal neurons) | suppression of GABAAR-mediated depolarization during SLEs (CA1 pyramidal neurons) | activity at 2 µM (CA1 pyramidal neurons; Pyramidal neuron, 0.5 h, fraction of control, n=5, two-tailed paired t-test, p=5*e^−4, read-out: post-tetanus spike frequency, of control) [%] |
| --- | --- | --- | --- | --- | --- | --- | --- | --- | --- | --- | --- | --- | --- | --- |
| CCCCNc1cc(C(=O)O)cc(S(=N)(=O)NC)c1Oc1ccccc1 (stereo not drawn) [Compound 51, 3-(butylamino)-5-(methylaminosulfonimidoyl)-4-phenoxy-benzoic acid] | 0.6538 and 1.003 and 0.8458 and 0.6095 and 0.2984 | 0.2304 and 0.3999 and 0.22 and 0.9979 and 1.222 and 0.1863 | 0.2253 and 0.1713 and 0.1814 and 0.3747 and 0.3549 and 0.1282 and 0.4268 | 0.1082 and 0.484 and 0.1443 and 0.1442 and 0.08715 and 0 and 0.175 | 0.1092 and 0 (2×) and 0.04 (2×) and 0.05 | 68.2 | 54.3 | 26.6 | 16.3 | 3.99 | able to block GDPs | potent anticonvulsive activity | potently suppressed | 27 ± 7 |
| CCCCNc1cc(C(=O)O)cc(S(=N)(=O)Nc2ccccc2)c1Oc1ccccc1 (stereo not drawn) [Compound 57, 3-(anilinosulfonimidoyl)-5-(butylamino)-4-phenoxy-benzoic acid] | 1.067 and 0.6415 and 0.36 and 0.7716 and 1.279 and 0.8652 and 0.5079 and 0.901 | 0.3666 and 0.448 and 0.5922 and 0.1844 and 0.9957 and 0.5556 and 0.7164 | 0.5108 and 0.3317 and 0.1389 and 0.1288 and 0.09779 and 0.191 and 0.2683 and 0.352 | 0.06999 and 0.4997 and 0.2222 and 0.0431 and 0.2732 and 0.2642 and 0 | 0.06399 and 0.2068 and 0 (3×) | 79.9 | 55.1 | 25.2 | 19.6 | 5.42 | able to block GDPs | potent anticonvulsive activity | potently suppressed |  |
